Measurements: US9868744B2, “Heteroaromatic compounds and their use as dopamine D1 ligands” (PFIZER INC., priority 2014, dated 2018)
Read-outs that look alike come from different tables or passages of the source.

Target: Human D1 Receptor (Homo sapiens (Human), UniProt P21728)
Assay: Human D1 receptor binding assay ([^3H]-SCH23390 competition)
Details: read-out: Human D1 Receptor Binding, Ki (nM), Geometric mean of 2-4 determinations (unless otherwise indicated)
Protocol: D1 binding assays were performed using over-expressing LTK human cell lines. […] These ligand and tissue concentrations were used in time course studies to determine linearity and equilibrium conditions for binding. […] The pellet was resuspended in assay buffer [50 mM Tris (pH 7.4@ RT) containing 4 mM MgSO4 and 0.5 mM EDTA]. […] Non-specific binding was determined by radioligand binding in the presence of a saturating concentration of (+)-Butaclamol (10 μM), a D1 antagonist. After a 30 minute incubation period at 37° C., assay samples were rapidly filtered through Unifilter-96 GF/B PEI-coated filter plates and rinsed with 50 mM Tris buffer (pH 7.4 at 4° C.). […] Ki values were calculated according to the Cheng-Prusoff equation: […]

Human D1 Receptor, sequence (P21728 whole entry): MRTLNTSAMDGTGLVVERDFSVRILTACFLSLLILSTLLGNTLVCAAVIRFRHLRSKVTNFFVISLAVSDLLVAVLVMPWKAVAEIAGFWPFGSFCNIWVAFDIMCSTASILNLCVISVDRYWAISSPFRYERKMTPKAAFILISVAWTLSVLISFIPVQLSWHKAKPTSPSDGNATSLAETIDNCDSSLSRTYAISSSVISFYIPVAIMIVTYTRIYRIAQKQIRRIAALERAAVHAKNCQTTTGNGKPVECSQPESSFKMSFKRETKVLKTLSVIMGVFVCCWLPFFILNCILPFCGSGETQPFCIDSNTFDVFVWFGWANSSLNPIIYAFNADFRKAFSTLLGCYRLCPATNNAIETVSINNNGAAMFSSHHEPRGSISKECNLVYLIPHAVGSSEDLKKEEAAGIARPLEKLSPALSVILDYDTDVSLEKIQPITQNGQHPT

Compound	Ki (competition with 0.5 nM [^3H]-SCH23390, over-expressing LTK human cell lines, 30 min at 37° C., values marked ^a are from a single determination)	Ki
Cc1cc(Oc2nccc3sncc23)ccc1-c1c(C)n[nH]c(=O)c1C [Example 10, 4,6-dimethyl-5-[2-methyl-4-([1,2]thiazolo[4,5-c]pyridin-4-yloxy)phenyl]pyridazin-3(2H)-one]	32.7 nM	–
Cc1cc(Oc2ncnc3occc23)ccc1-c1c(C)ncnc1C [Example 1, 4-[4-(4,6-dimethylpyrimidin-5-yl)-3-methylphenoxy]furo[2,3-d]pyrimidine]	–	166 nM
Cc1cc(Oc2nccc3[nH]cnc23)ccc1-c1c(C)ncc2nccn12 [Example 2, 4-[3-methyl-4-(6-methylimidazo[1,2-a]pyrazin-5-yl)phenoxy]-1H-imidazo[4,5-c]pyridine]	–	374 nM
